Common to all, as to assay type: physicochemical
Data set [1] is described as follows: Thermogravimetric analysis (TGA) of solvated forms, ambient to 165° C. To be noted: for TGA weight loss: temperature raised from ambient to 165° C., sodium salt. The procedure: A screen for polymorphs and solvates of efaproxiral sodium was performed using a variety of crystallization techniques. The resulting polymorphs were analyzed using a number of analytical techniques well known in the art for their ability to differentiate between different polymorphs, including thermogravimetric analysis (TGA), reflectance Fourier transform infrared (FTIR) spectroscopy (see EXAMPLE 2), and X-ray powder diffraction (XRPD) (see EXAMPLE 3). TGA is often very useful for distinguishing between different solid forms of a material because the temperature(s) at which a physical change in a material occurs is usually characteristic of the polymorph or solvate. X-Ray Powder Diffraction (XRPD) is a technique that detects long-range and short-range order in a crystalline material. IR spectroscopy also detects both intramolecular and intermolecular bonding in solids, and further provides information regarding the chemical composition of the crystalline material.

Data set [2] in a line: Solid form remaining after heating or drying (XRPD). The procedure: XRPD analyses were carried out on a Shimadzu XRD-6000 X-ray powder diffractometer using Cu Kα radiation. The instrument is equipped with a long fine focus X-ray tube. The tube voltage and amperage were set at […] and 40 mA, respectively. The divergence and scattering slits were set at 1° and the receiving slit was set at 0.15 mm. Diffracted radiation was detected by a […] scintillation detector. A theta-two theta continuous scan at 3′/min (0.4 sec/0.02° step) from 2.5 to 40 °2θ was used. A silicon standard was analyzed each day to check the instrument alignment. Samples were analyzed with an aluminum/silicon sample holder.
Efaproxiral sodium Form A (1125.7 mg) was dissolved completely in […] of ethanol at 48° C. Acetone (7600 μL) was slowly added over a one minute period. Form G and Form Q formed in the reactor at this time. After 1 minute 50 seconds, a further 6250 μL of acetone was added and the reactor was allowed to cool to approximately 25° C. and then to approximately 15° C. The solid material in the reactor during this interval was Form Q. After approximately 10 minutes had passed from the initial addition of acetone, the resulting powdery white solid was collected by vacuum filtration, washed with 6000 μL acetone and dried in a 52° C. vacuum oven.

Data set [3] is described as follows: Moisture balance / relative humidity exposure of efaproxiral sodium solid forms. As to conditions: for solid form after relative humidity is decreased to 5%: RH lowered to about 5% RH, sodium salt. The protocol:
Approximately 100 mg of efaproxiral sodium Form A was placed in a 20 mL glass vial. The vial was placed, uncapped, in an ambient temperature relative humidity jar at 75% relative humidity for approximately 24 hours.
A quantity of Form A was placed on a weigh pan at about 0% relative humidity (RH). The RH was slowly raised to about 95% (adsorption) and was then lowered back to about 5% RH (desorption). The weight of the solid material was measured throughout. The results are depicted in FIG. 10. […] The resulting Form I loses slightly less than 4 moles of water as the humidity is further lowered to about 5% RH.

The mark [4] stands for this setting: Form A exposed to approximately 95% humidity.

Molecules are shown by their SMILES.

Regarding `Cc1cc(C)cc(NC(=O)Cc2ccc(OC(C)(C)C(=O)[O-])cc2)c1.[Na+]` [Form P, 2-[4-[2-[(3,5-dimethylphenyl)amino]-2-oxoethyl]phenoxy]-2-methyl-propionic acid, sodium salt], the “solvent loss equivalent to TGA weight loss” value in data set [1] (ambient to 165° C.) is listed as “about 1 mole of ethanol per mole of efaproxiral sodium”. For the same molecule, the TGA weight loss result in data set [1] was “approximately 10.6%”. Besides, the “solid form remaining after heating (XRPD)” value in data set [2] (heated to 156° C.) is reported as “Form A”.
In the case of `Cc1cc(C)cc(NC(=O)Cc2ccc(OC(C)(C)C(=O)[O-])cc2)c1.[Na+]` [Form J, 2-[4-[2-[(3,5-dimethylphenyl)amino]-2-oxoethyl]phenoxy]-2-methyl-propionic acid, sodium salt], the “solid form after relative humidity is decreased to 5%” value in data set [3] is “Amorphous material”. In addition, the “water lost (desorption)” value in data set [3] (humidity lowered from about 95% to about 20% RH, converts to Form I) is “about 3 moles of water/mole efaproxiral sodium”.
For `Cc1cc(C)cc(NC(=O)Cc2ccc(OC(C)(C)C(=O)[O-])cc2)c1.[Na+]` [Form I, 2-[4-[2-[(3,5-dimethylphenyl)amino]-2-oxoethyl]phenoxy]-2-methyl-propionic acid, sodium salt], the “solid form after relative humidity is decreased to 5%” value in data set [3] is on record as “amorphous efaproxiral sodium”. Further, the “water lost (desorption)” value in data set [3] (humidity further lowered to about 5% RH) is “less than 4 moles of water”.
For the molecule `Cc1cc(C)cc(NC(=O)Cc2ccc(OC(C)(C)C(=O)[O-])cc2)c1.[Na+]` [Form Q, 2-[4-[2-[(3,5-dimethylphenyl)amino]-2-oxoethyl]phenoxy]-2-methyl-propionic acid, sodium salt], the “solvent loss equivalent to TGA weight loss” value in data set [1] (ambient to about 165° C.) is listed as “½ to about ⅓”. Further, the TGA weight loss entry in data set [1] is on record as “approximately 5.7%”. In addition, the “solid form after drying” value is “Form Q” in data set [2] (52° C. vacuum oven, 14 hours of drying); “Form Q” in data set [2] (52° C. vacuum oven, 32 hours of drying); “Form B” in data set [2] (dried at 70° C. under vacuum). In data set [2] (heated to about 165° C.), the “solid form remaining after heating (XRPD)” value is “Form A”.
For `Cc1cc(C)cc(NC(=O)Cc2ccc(OC(C)(C)C(=O)[O-])cc2)c1.[Na+]` [Form A, 2-[4-[2-[(3,5-dimethylphenyl)amino]-2-oxoethyl]phenoxy]-2-methyl-propionic acid, sodium salt], the results for the “water uptake equivalent to weight gain” value in data set [3] (setting [4]) and in data set [3] (Form A incubated at high relative humidity) were “approximately 7 moles of water/mole efaproxiral sodium” and “about 4 moles of water/mole efaproxiral sodium”, respectively. Besides, the weight gain result is listed as “approximately 34%” in data set [3] (setting [4]) and “approximately 20%” in data set [3] (Form A incubated at high relative humidity (75% RH, ambient temperature, approximately 24 hours)). Moreover, in data set [3] (RH raised from about 0% to about 85% RH, converts to Form I), the “water gained (adsorption)” value is given as “about 4 moles of water/mole efaproxiral sodium”. Also, the “solid form after incubation at high relative humidity” value in data set [3] (high relative humidity) was “Form I”. In data set [3] (humidity raised further to about 95% RH, converts to Form J), the “further water gained (adsorption)” value was “about 3 moles of water/mole efaproxiral sodium”.
Take `Cc1cc(C)cc(NC(=O)Cc2ccc(OC(C)(C)C(=O)[O-])cc2)c1.[Na+]` [Form F, 2-[4-[2-[(3,5-dimethylphenyl)amino]-2-oxoethyl]phenoxy]-2-methyl-propionic acid, sodium salt]: the “removal of lattice solvent (methanol) by heating” value in data set [2] (80° C. for approximately 3 hours) is given as “can be removed”.

Source of the values: US20070299136A1, “Crystalline and Amorphous Forms of Efaproxiral Sodium” (priority 2004, published 2007).
